Measured values published in US6761896B1, “Skin cosmetic care system and method” (Unilever Home & Personal Care USA, division of Conopco, Inc., priority 1998, dated 2004).
“And” between values parts separate entries of the source, which are not always exact repeats. Equal values may be shown once.

Assays:
Assay type in all cases: cell-based
[1] = system: MelanoDerm MEL-300; experiment: Pigmentation in MelanoDerm Living Skin Equivalent (blue colour image analysis); conditions: for effect of South pole magnetism on skin depigmenting action: Kojic acid 500, Yohimbine 25, Ascorbic acid 285 micro-molar, magnet vs no magnet, p<0.05; for Pigmentation Reduction Magnet % South Pole (B): day 14, South Pole magnet; for Pigmentation Reduction Magnet % South Pole (B) / Pigmentation Reduction % No Magnet (A): individual tissues; for Pigmentation Reduction % No Magnet (A): day 14, no magnet, relative to untreated control
Procedure: Kojic acid, Vitamin C, and Yohimbine were examined for their ability to reduce pigmentation in the MelanoDerm Living Skin Equivalent in the presence and absence of South Pole magnetism. After 14 days of incubation, during which one series of tissues was exposed to South Pole magnetism and an equivalent duplicate series was not, the melanin color formed in each tissue was estimated using primary color image analysis.
MelanoDerm™ MEL-300, a 3-dimensional epidermal model containing functioning melanoctyes produced by MatTek Corporation, Ashland, Mass., was the tissue used for this experiment. Each MEL-300 kit has 24 tissue pieces.
Three depigmenting actives were added to the Melanoderm incubation medium at the following final concentrations,
Two (2) MEL-300 kits, each with 24 tissue pieces, were prepared with identical application of actives. Each active, Vitamin C, Kojic acid & Yohimbine, was applied to the incubation medium of 5 tissues at the concentrations specified above. 4 tissues were untreated. […] One Mel-300 kit prepared as above was placed on the 6 inch×4 inch South Pole surface of the Ferrimag magnet for incubation, and the identical second Mel-300 kit was incubated at the opposite side (top left vs bottom right) of the same incubator and additionally shielded from the magnet.
The tissues were incubated for 14 days in maintenance medium at 37 degrees centigrade and a constant atmosphere (5%CO2). The maintenance medium and actives were replenished 4 times weekly. At 7 days, 2 tissues were removed from each active and control group leaving 3 tissues in each group (2 in the untreated group) for day 14 evaluation.
At the day 14 completion of the experiment the tissue pieces of each Mel-300 incubation plate were photographed from above. Each tissue appeared as a small disc varying in brown color intensity. The photographs of two Mel-300 incubation plates (one incubated on the magnet and one without magnetism) were scanned into a Pentium II computer and the color primary color content of each disc was measured using a color analysis macro within an Optimas image quantification software package. The blue color content was used as an index of melanin pigment (preliminary experiments confirmed that the principle primary color of melanin is blue using this image analysis system—this was established by comparing brown freckles and age spots with surrounding non-pigmented skin in color photographs of Caucasian human skin). The blue color intensity scale is 0-255 where 0 is saturation with blue color and 255 is total absence of blue color. The actual blue scale reading of each tissue sample was converted to a % blue value by computing it's proportion of the full range of 0to 255.

[2] = system: human sebocytes; experiment: Lipid production by sebocytes in vitro (14C-acetate incorporation); conditions: for % Reduction: vs control of same plate
Procedure: This example measured the effect of various actives in combination with magnets on lipid production by sebocytes in vitro.
Secondary cultures of human sebocytes obtained from an adult […] were grown in the inner 24 wells of 48-well tissue culture plates (Costar Corp.; Cambridge, Mass.) until confluent. Sebocyte growth medium consisted of Clonetics Keratinocyte Basal Medium (KBM) supplemented with 14 ug/ml bovine pituitary extract, 0.4 ug/ml hydrocortisone, 5 ug/ml insulin, 10 ng/ml epidermal growth factor, 1.2×10^−10 M cholera toxin, 100 units/ml penicillin, and 100 ug/ml streptomycin. All cultures were incubated at 37° C. in the presence of 7.5% CO2. Medium was changed three times per week.
On the first day of experimentation, the growth medium was removed and the sebocytes washed three times with sterile Dulbecco's Modified Eagle Medium (DMEM; phenol red free). Fresh DMEM was added to each sample (triplicates) with 5 microliter of test agent solubilized in ethanol (312.5 uM iso-tridecylsalicylate or 10 uM Retinyl Linoleate; 6 replicates for each sample). Controls consisted of addition of ethanol alone. Each magnet was sandwiched between 2 plates for 24 hours. For 2 of the sebocyte plates, the configuration was North magnet pointing up, for 2 other plates, the configuration was reversed (South magnet up), and one plate served as a control (no presence of magnets).
After 24 hours, addition of ^14C-acetate buffer (5 mM final concentration, 56 mCi/mmol specific activity) was performed. Sebocytes were then returned to the incubator for four hours after which each culture was rinsed three times with phosphate buffered saline to remove unbound label. Radioactive label remaining in the sebocytes was harvested and counted using a Beckman scintillation counter.

[3] = system: IL1-a; experiment: IL1-a release by MelanoDerm Living Skin Equivalents (Elisa); set-up: IL1-a(i) / IL1-a(ii): unit not given here; conditions: 0.5% phytic acid; for IL1-a release % Untreated: 24 hr; for IL1-a(i): first determination; for IL1-a(i) / IL1-a(ii): individual tissues; for IL1-a Mean: mean of (i) and (ii); for IL1-a(ii): second determination 7 days later
Procedure: (§1) Phytic acid (0.5%) was examined for its effect on cytokine release by MelanoDerm Living Skin Equivalents in the presence and absence of South Pole magnetism. After 24 hours incubation, during which one set of tissues was exposed to South Pole magnetism and an equivalent duplicate series was not, the culture medium was assayed for IL1-a and PGE-2. In the absence of magnetism there was a significant increase in medium concentration of both IL1-a and PGE-2. These increases were suppressed in the presence of South pole magnetism. Living Skin Equivalent: MelanoDermTM MEL-300, a 3-dimensional epidermal model containing functioning melanoctyes produced by MatTek Corporation, Ashland, Mass., was the tissue used for this experiment. Fifty (50) microliters of phytic acid solution (0.5%) was applied to the stratum corneum surface of 4 MEL-300 tissues. Eight (8) untreated MEL-300 tisues served as controls. Half the tissues (i.e. 2 phytic acid and 4 untreated controls) were placed on the 6 inch×4 inch South Pole surface of the […] magnet for 24 hours incubation (37 degrees centigrade; 5% CO2). After the 24 hr incubation the tissues were removed from the incubation medium and assayed for MTT to confirm tissue viability. The incubation medium was assayed for content of cytokines IL1-a and PGE-2. The tissue samples were refrigerated and a second determination of cyotkines was made 7 days later. The cytokine assays were performed using commercially available 96 well Elisa kits.

[4] = system: PGE-2; experiment: PGE-2 release by MelanoDerm Living Skin Equivalents (Elisa); set-up: PGE-2(i) / PGE-2 (ii): unit not given beside the values; conditions: 0.5% phytic acid; for PGE-2 release % Untreated: 24 hr; for PGE-2(i): first determination; for PGE-2(i) / PGE-2 (ii): individual tissues; for PGE-2 Mean: mean of (i) and (ii); for PGE-2 (ii): second determination 7 days later
Procedure: as §1

[5] = system: MelanoDerm tissue; experiment: MelanoDerm tissue viability by MTT; conditions: 0.5% in water, preliminary experiment
Procedure: Phytic acid was tested at a concentration of 0.5% in water.

[6] = 312.5 uM TDS, Plate A: No Magnet Presence
[7] = 312.5 uM TDS, Plate B: North Magnet Up (Top Plate)
[8] = 312.5 uM TDS, Plate C: North Magnet Up (Bottom Plate)
[9] = 312.5 uM TDS, Plate D: South Magnet Up (Top Plate)
[10] = 312.5 uM TDS, Plate E: South Magnet Up (Bottom Plate)
[11] = 10 uM Retinyl Linoleate, Plate A: No Magnet Presence
[12] = 10 uM Retinyl Linoleate, Plate B: North Magnet Up (Top Plate)
[13] = 10 uM Retinyl Linoleate, Plate C: North Magnet Up (Bottom Plate)
[14] = 10 uM Retinyl Linoleate, Plate D: South Magnet Up (Top Plate)
[15] = 10 uM Retinyl Linoleate, Plate E: South Magnet Up (Bottom Plate)
[16] = No Magnetism, increase over untreated

O=c1cc(CO)occ1O [Kojic Acid, Kojic acid]
effect of South pole magnetism on skin depigmenting action [1]: enhances
Mean A-B (Mean Difference) ([1]; Kojic acid 500 micro-molar): −2.06
Pigmentation Reduction Magnet % South Pole (B) ([1]; Kojic acid 500 micro-molar): −9.21% and −10.02% and 4.75%
Pigmentation Reduction % No Magnet (A) ([1]; Kojic acid 500 micro-molar): −4.77% and −8.72% and −4.27%

COC(=O)[C@@H]1[C@H]2C[C@H]3c4[nH]c5ccccc5c4CCN3C[C@@H]2CC[C@@H]1O [Yohimbine]
effect of South pole magnetism on skin depigmenting action [1]: enhances
Mean A-B (Mean Difference) ([1]; Yohimbine 25 micro-molar): −3.27
Pigmentation Reduction Magnet % South Pole (B) ([1]; Yohimbine 25 micro-molar): −2.55% and −8.08% and −6.76%
Pigmentation Reduction % No Magnet (A) ([1]; Yohimbine 25 micro-molar): 1.85% and −5.63% and −3.8%

O=C1O[C@H]([C@@H](O)CO)C(O)=C1O [Vitamine C, Ascorbic acid]
Mean A-B (Mean Difference) ([1]; Ascorbic acid 285 micro-molar): −3.97
Pigmentation Reduction Magnet % South Pole (B) ([1]; Ascorbic acid 285 micro-molar): −6.18% and −6.34% and −4.55%
Pigmentation Reduction % No Magnet (A) ([1]; Ascorbic acid 285 micro-molar): −4.21% and −2.65% and 1.7%
effect of South pole magnetism on skin depigmenting action [1]: enhances

iso-tridecylsalicylate [TDS]
DPMs (AVG) [2, 6]: 2913.0 DPMs
% Reduction [2, 6]: 36.3%
DPMs (AVG) [2, 7]: 3367.8 DPMs
% Reduction [2, 7]: 23.6%
DPMs (AVG) [2, 8]: 3543.9 DPMs
% Reduction [2, 8]: 4.9%
DPMs (AVG) [2, 9]: 3040.0 DPMs
% Reduction [2, 9]: 14.7%
DPMs (AVG) [2, 10]: 2677.4 DPMs
% Reduction [2, 10]: 20.5%

CCCCC/C=C\C/C=C\CCCCCCCC(=O)OC/C=C(C)/C=C/C=C(C)/C=C/C1=C(C)CCCC1(C)C [Retinyl Linoleate]
DPMs (AVG) [2, 11]: 4198.1 DPMs
% Reduction [2, 11]: 3.9%
DPMs (AVG) [2, 12]: 4123.0 DPMs
% Reduction [2, 12]: 6.5%
DPMs (AVG) [2, 13]: 3660.1 DPMs
% Reduction [2, 13]: 1.8%
DPMs (AVG) [2, 14]: 3619.4 DPMs
% Reduction [2, 14]: −1.6%
DPMs (AVG) [2, 15]: 3181.1 DPMs
% Reduction [2, 15]: 5.6%

O=P(O)(O)O[C@H]1[C@H](OP(=O)(O)O)[C@@H](OP(=O)(O)O)[C@H](OP(=O)(O)O)[C@@H](OP(=O)(O)O)[C@H]1OP(=O)(O)O [Phytic acid]
IL1-a release % Untreated ([3]; + South Pole Magnetism, increase over untreated plus magnet): 16%
IL1-a release % Untreated [3, 16]: 99%
IL1-a(i) ([3]; South Pole magnet): 239.1 and 108.9
IL1-a Mean ([3]; South Pole magnet): 151.2 +/− 64
IL1-a(ii) ([3]; South Pole magnet): 158.2 and 98.4
IL1-a(i) ([3]; no magnet): 285.3 and 222.9
IL1-a Mean ([3]; no magnet): 209 +/− 61
IL1-a(ii) ([3]; no magnet): 186.2 and 141.1
PGE-2 release % Untreated ([4]; + South Pole Magnetism, change over untreated plus magnet): −2%
PGE-2 release % Untreated [4, 16]: 191%
PGE-2(i) ([4]; South Pole magnet): 2056 and 2387
PGE-2 Mean ([4]; South Pole magnet): 2093 +/− 208
PGE-2 (ii) ([4]; South Pole magnet): 1899 and 2030
PGE-2(i) ([4]; no magnet): 5326 and 4673
PGE-2 Mean ([4]; no magnet): 5136 +/− 421
PGE-2 (ii) ([4]; no magnet): 5621 and 4923
toxicity to MelanoDerm tissue (tissue viability by MTT) [5]: non-toxic
